From US20090269394A1, “METHODS AND COMPOSITIONS FOR TREATING ONCHOMYCOSIS” (priority 2008, published 2009)
In brackets after ≈: the same amount, converted by molar mass. Where two headings read alike, the source gives them in different places.

What was measured:
Paecilomyces spp. = experiment: MIC against rare onychomycosis pathogens (CLSI M 38-A); format: cell-based; conditions: 4 isolates; NB-002 as μg CPC/ml
Description: (§1) Methods: All fungi were from patients, many of which had onychomycosis or another tinea infection.

Alternaria spp. = experiment: as above; format: cell-based; conditions: 3 isolates; NB-002 as μg CPC/ml
Description: as §1

Scedosporium spp. = experiment: as above; format: cell-based; conditions: 5 isolates; NB-002 as μg CPC/ml
Description: as §1

Trichophyton verrucosum = experiment: as above; format: cell-based; conditions: 3 isolates; NB-002 as μg CPC/ml
Description: as §1

Epicoccum nigrum = experiment: as above; format: cell-based; conditions: 3 isolates; NB-002 as μg CPC/ml
Description: as §1

Scytalydium spp. = experiment: as above; format: cell-based; conditions: 10 isolates; NB-002 as μg CPC/ml
Description: as §1

Scopulariopsis spp. = experiment: as above; format: cell-based; conditions: 5 isolates; NB-002 as μg CPC/ml
Description: as §1

Curvularia spp. = experiment: as above; format: cell-based; conditions: 3 isolates; NB-002 as μg CPC/ml
Description: as §1

Phoma sp. = experiment: as above; format: cell-based; conditions: 3 isolates; NB-002 as μg CPC/ml
Description: as §1

Aspergillus spp. = experiment: as above; format: cell-based; conditions: 5 isolates; NB-002 as μg CPC/ml
Description: as §1

Chaetomium spp. = experiment: as above; format: cell-based; conditions: 3 isolates; NB-002 as μg CPC/ml
Description: as §1

Trichophyton soundanense = experiment: as above; format: cell-based; conditions: 3 isolates; NB-002 as μg CPC/ml
Description: as §1

[1] = tested on: Candida albicans isolates; experiment: MIC/MFC microtiter broth dilution; format: cell-based; conditions: NB-002 as μg CPC/ml
Epidermophyton floccosum [2] = experiment: MIC/MFC microtiter broth dilution; format: cell-based; conditions: n = 6 isolates; NB-002 as μg CPC/ml
T. rubrum = experiment: Time-kill experiments on mycelia and microconidia; format: cell-based, Trichophyton rubrum
Procedure: Time-kill experiments. […] Part of the conidial suspension was pelleted and resuspended in RPMI 1640 medium and grown for 16-18 hours overnight at room temperature to allow germination of microconidia. After germination, the hyphae were collected by centrifugation and resuspended in distilled water. […] Colony-forming units were counted after four days of incubation at 35° C.

[3] = tested on: Trichophyton mentagrophytes; experiment: MIC/MFC microtiter broth dilution; format: cell-based; conditions: for MIC90 / MIC50: Trichophyton mentagrophytes; for MFC50 / MFC90 / MIC range: n = 14 isolates, NB-002 as μg CPC/ml
Acremonium spp. = experiment: MIC against rare onychomycosis pathogens (CLSI M 38-A); format: cell-based; conditions: 5 isolates; NB-002 as μg CPC/ml
Description: as §1

Fusarium spp. = experiment: as above; format: cell-based; conditions: 10 isolates; NB-002 as μg CPC/ml
Description: as §1

Trichophyton rubrum [4] = experiment: microbe, parasite or virus in culture; format: cell-based
Procedure: (§2) Phenotypically resistant isolates were tested for MICs and compared to parental MICs.

[5] = tested on: Trichophyton mentagrophytes; experiment: microbe, parasite or virus in culture; format: cell-based
Procedure: as §2

Epidermophyton floccosum [6] = experiment: microbe, parasite or virus in culture; format: cell-based; conditions: read-out: Final MIC
Procedure: as §2

Trichophyton rubrum [7] = format: cell-based; conditions: 10^7 conidia plated; NBD031-b; drug plate 0.125 μg/ml
[8] = Azole-Resistant isolates (n = 24)
[9] = Azole-Susceptible isolates (n = 10)
[10] = read-out: Final MIC, isolate NBD031-a, selected on NB-002 drug plate 16 μg/ml
[11] = read-out: Final MIC, isolate NBD031-b, selected on itraconazole drug plate 0.125 μg/ml
[12] = read-out: Final MIC, isolate NBD031-c, selected on terbinafine drug plate 0.125 μg/ml
[13] = read-out: Final MIC, isolate NBD012-a, selected on NB-002 drug plate 8 μg/ml
[14] = read-out: Final MIC, isolate NBD012-b, selected on NB-002 drug plate 16 μg/ml
[15] = read-out: Final MIC, isolate NBD012-c, selected on NB-002 drug plate 32 μg/ml
[16] = read-out: Final MIC, isolate NBD012-d, selected on terbinafine drug plate 0.0625 μg/ml
[17] = read-out: Final MIC, isolate NBD013-a, selected on itraconazole drug plate […]
[18] = read-out: Final MIC, isolate NBD014-a, selected on NB-002 drug plate 32 μg/ml
[19] = Candida albicans, Azole-Resistant isolates (n = 24), read-out: MIC90
[20] = Candida albicans, Azole-Susceptible isolates (n = 10), read-out: MIC90

Row | Compound | MIC range (Paecilomyces spp.) [µg/mL] | MIC range (Alternaria spp.) [µg/mL] | MIC range (Scedosporium spp.) [µg/mL] | MIC range (Trichophyton verrucosum) | MIC range (Epicoccum nigrum) [µg/mL] | MIC range (Scytalydium spp.) [µg/mL] | MIC range (Scopulariopsis spp.) [µg/mL] | MIC range (Curvularia spp.) [µg/mL] | MIC range (Phoma sp.) [µg/mL] | MIC range (Aspergillus spp.) [µg/mL] | MIC range (Chaetomium spp.) [µg/mL] | MIC range (Trichophyton soundanense) [µg/mL] | MFC90 [1, 8] [µg/mL] | MFC90 [1, 9] [µg/mL] | MIC range (Epidermophyton floccosum [2]) [µg/mL] | MIC90 [3] [µg/mL] | MFC50 [3] [µg/mL] | MFC90 [3] [µg/mL] | MIC range [3] [µg/mL] | MIC range (Acremonium spp.) [µg/mL] | further results
1 | C[C@@H]1[C@H](O)[C@@H](C)/C=C/C=C/C=C/C=C/C=C/C=C/C=C/[C@H](O[C@@H]2O[C@H](C)[C@@H](O)[C@H](N)[C@@H]2O)C[C@@H]2O[C@](O)(C[C@@H](O)C[C@@H](O)[C@H](O)CC[C@@H](O)C[C@@H](O)CC(=O)O[C@H]1C)C[C@H](O)[C@H]2C(=O)O [Amphotericin B] | >16 | 1 (≈ 1.08 µM) | >16 | 0.125 to 0.25 µg/mL | 0.25 to 1 | 0.5 to 1 | >16 | 0.125 to 1 | 0.5 to 2 | 1 to 4 | 0.5 to 4 | 0.125 to 0.25 | 4 (≈ 4.33 µM) | 2 (≈ 2.16 µM) |  |  |  |  |  |  | MIC90 [1, 8]: 2 µg/mL (≈ 2.16 µM); MIC90 [1, 9]: 2 µg/mL (≈ 2.16 µM)
2 | Cc1cc(C2CCCCC2)n(O)c(=O)c1 [Ciclopirox] | 8 to 16 | 0.25 to 0.5 | 0.5 to 8 | <=0.06-0.125 ug/ml | 0.125 to 2 | 0.5 to 1 | 0.5 to 2 | 0.5 to 1 | 0.5 to 1 | 0.5 to 2 | 0.25 to 0.5 | 0.125 to 0.25 | >32 | >32 | 0.5 (≈ 2.41 µM) | 1 (≈ 4.82 µM) | 1 (≈ 4.82 µM) | 16 (≈ 77.2 µM) | 0.125 to 1 | 0.5 to 4 | reduction in colony counts (T. rubrum; 16×MIC or 8 μg/ml, after 8 hours, nongrowing mycelia (not microconidia), isolate NBD032): 3 log; activity against the conidial form (T. rubrum; 16×MIC, up to 24 hours, nongrowth conditions): no activity; MIC50 ([3]; read-out: MIC50): 0.5 µg/mL (≈ 2.41 µM); MIC range (Fusarium spp.): 1 to 16 µg/mL; MIC (Trichophyton rubrum [4]; [10]): 4 µg/mL (≈ 19.3 µM); MIC (Trichophyton rubrum [4]; [11]): 4 µg/mL (≈ 19.3 µM); MIC (Trichophyton rubrum [4]; [12]): 4 µg/mL (≈ 19.3 µM); MIC [5, 13]: 4 µg/mL (≈ 19.3 µM); MIC [5, 14]: 4 µg/mL (≈ 19.3 µM); MIC [5, 15]: 4 µg/mL (≈ 19.3 µM); MIC [5, 16]: 4 µg/mL (≈ 19.3 µM); MIC [5, 17]: 4 µg/mL (≈ 19.3 µM); MIC [5, 18]: 4 µg/mL (≈ 19.3 µM); MIC (Epidermophyton floccosum [6]): 4 µg/mL (≈ 19.3 µM); MIC90 [1, 19]: 1 µg/mL (≈ 4.82 µM); MIC90 [1, 20]: 4 µg/mL (≈ 19.3 µM)
3 | CCC(C)n1ncn(-c2ccc(N3CCN(c4ccc(OCC5COC(Cn6cncn6)(c6ccc(Cl)cc6Cl)O5)cc4)CC3)cc2)c1=O (centres unmarked) [Itraconazole] |  | 0.25 to 0.5 |  | 0.06 to 0.125 µg/mL | 0.25 to 0.5 |  |  | 0.125 to 0.25 | 0.06 to 0.5 | 0.06 to 1 | 0.5 to 1 | 0.125 to 0.25 | >16 | >16 | 0.125 to 0.5 | 0.5 (≈ 0.709 µM) | 8 (≈ 11.3 µM) | >16 | 0.0625 to 0.5 | >8 | # CFU recovered (Trichophyton rubrum [7]): 2; reduction of colony counts / activity on mycelia and microconidia (T. rubrum; 16×MIC, up to 24 hours, nongrowth conditions (FIG. 10)): no activity; MIC50 [3]: 0.125 µg/mL (≈ 0.177 µM); MIC (Trichophyton rubrum [4]; [10]): 0.0625 µg/mL (≈ 0.0886 µM); MIC (Trichophyton rubrum [4]; [11]): 0.0625 µg/mL (≈ 0.0886 µM); MIC (Trichophyton rubrum [4]; [12]): 0.0313 µg/mL (≈ 0.0444 µM); MIC [5, 13]: 0.0625 µg/mL (≈ 0.0886 µM); MIC [5, 14]: 0.0625 µg/mL (≈ 0.0886 µM); MIC [5, 15]: 0.0625 µg/mL (≈ 0.0886 µM); MIC [5, 16]: 0.0625 µg/mL (≈ 0.0886 µM); MIC [5, 17]: 0.125 µg/mL (≈ 0.177 µM); MIC [5, 18]: 0.0625 µg/mL (≈ 0.0886 µM); MIC (Epidermophyton floccosum [6]): 0.25 µg/mL (≈ 0.354 µM); MIC90 [1, 19]: > 16 µg/mL; MIC90 [1, 20]: 0.5 µg/mL (≈ 0.709 µM)
